Structures are written as SMILES.

By inhibition is commonly meant the relative decrease from the control value, in per cent.

T1 sequence (Q07343 whole entry): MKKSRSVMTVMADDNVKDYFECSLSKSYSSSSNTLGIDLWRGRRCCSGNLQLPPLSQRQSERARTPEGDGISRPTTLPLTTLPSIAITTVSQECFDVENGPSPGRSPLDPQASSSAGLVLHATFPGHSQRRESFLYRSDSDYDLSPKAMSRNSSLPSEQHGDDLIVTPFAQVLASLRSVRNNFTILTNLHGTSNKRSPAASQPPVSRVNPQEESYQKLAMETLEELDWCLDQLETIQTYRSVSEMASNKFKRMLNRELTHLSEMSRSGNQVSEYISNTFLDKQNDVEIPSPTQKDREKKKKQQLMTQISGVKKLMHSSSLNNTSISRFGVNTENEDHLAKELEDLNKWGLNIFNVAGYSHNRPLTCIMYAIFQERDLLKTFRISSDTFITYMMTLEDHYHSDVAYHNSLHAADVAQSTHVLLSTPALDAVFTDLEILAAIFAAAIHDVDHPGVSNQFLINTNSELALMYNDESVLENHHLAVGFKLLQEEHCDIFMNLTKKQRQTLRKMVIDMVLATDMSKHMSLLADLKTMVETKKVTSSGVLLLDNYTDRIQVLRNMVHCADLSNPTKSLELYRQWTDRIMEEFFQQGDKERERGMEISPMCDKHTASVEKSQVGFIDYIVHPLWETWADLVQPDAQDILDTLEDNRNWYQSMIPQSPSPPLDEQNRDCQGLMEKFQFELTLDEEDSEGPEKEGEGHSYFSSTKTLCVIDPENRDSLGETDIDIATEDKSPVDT

The first test concerns the target T1, human PDE4B1 (Homo sapiens, UniProt Q07343).
T1 construct: host or cells: Sf9 cells
In words: TR-FRET assay using the LANCE Ultra cAMP kit to determine the activity of hPDE4B1. The test is classed as biochemical. The settings on record: test concentration 1 μM, read-out: Inhibition in % (inhibition of PDE4B). The text has this:
TR-FRET Assay Using the LANCE® Ultra cAMP Kit to Determine the Activity of hPDE4B1
The effects of the compounds on the activity of the human PDE4B1 was quantified by measuring the production of 5′AMP from cAMP using a human recombinant enzyme expressed in Sf9 cells and the LANCE® Ultra cAMP kit, a TR-FRET detection method from PerkinElmer. The human PDE4B1 enzyme was purchased from SignalChem Lifesciences (Catalog# P92-31BG, Lot# H296-2).
The test compound, reference compound or water (control) was mixed with the enzyme (0.96 U) in a reaction buffer containing 50 mM Tris-HCl, 50 mM MgCl2 and 5 mM DTT (pH 8.5). Thereafter, the reaction was initiated by addition of 500 nM cAMP (substrate) and the mixture was incubated for 30 minutes at room temperature. For control basal measurements, the enzyme was omitted from the reaction mixture. After 30 minutes, the reaction was stopped and diluted by a factor of 100 with the reaction buffer supplemented with 500 μM IBMX. The fluorescence donor (europium chelate-labeled cAMP) and the fluorescence acceptor (anti-cAMP antibody labeled with the ULight™ dye) were then added together with 500 μM IBMX to a 10 μl aliquot. After 60 minutes, the fluorescence transfer corresponding to the amount of residual cAMP was measured at λex=337 nm, λem=620 nm and λem=665 nm using a microplate reader (PHERAstar, BMG). The enzyme activity was determined by dividing the signal measured at 665 nm by that measured at 620 nm (ratio) multiplied by 10000. The results were expressed as percent inhibition of the control enzyme activity. IC50 values (IC50=concentration causing a half-maximal inhibition of control specific activity) were derived from dose response measurements with ten different concentrations (n=3; N=1-3).
For orientation: Time-resolved FRET reads energy transfer from a long-lived donor to a nearby acceptor.
Regarding `Cc1ccc(F)c(-c2cnc(-n3cc([S+](C)[O-])c4ccc(C(=O)N(C)C)cc43)nc2)c1` (stereo not drawn) [Example 267, 1-(5-(2-Fluoro-5-methylphenyl)pyrimidin-2-yl)-N,N-dimethyl-3-(methylsulfinyl)-1H-indole-6-carboxamide], the inhibition at 1 µM was found to be 94%.

`COc1ccc(F)c(-c2cnc(-n3cc([S+](C)[O-])c4ccc(C(=O)N(C)C)cc43)nc2)c1` (stereo not drawn) [Example 268, 1-(5-(2-Fluoro-5-methoxyphenyl)pyrimidin-2-yl)-N,N-dimethyl-3-(methylsulfinyl)-1H-indole-6-carboxamide]: the inhibition at 1 µM was found to be 95%.

For `Cc1ccnc(-c2cnc(-n3cc([S+](C)[O-])c4ccc(C(=O)N5CCCC5)cc43)nc2)c1` (stereo not drawn) [Example 269, (1-(5-(4-Methylpyridin-2-yl)pyrimidin-2-yl)-3-(methylsulfinyl)-1H-indol-6-yl)(pyrrolidin-1-yl)methanone], the inhibition at 1 µM turned out to be 97%.

As to `Cc1ccnc(-c2cnc(-n3cc([S+](C)[O-])c4ccc(C(=O)N(C)C)cc43)nc2)c1` (stereo not drawn) [Example 270, N,N-Dimethyl-1-(5-(4-methylpyridin-2-yl)pyrimidin-2-yl)-3-(methylsulfinyl)-1H-indole-6-carboxamide], the inhibition at 1 µM turned out to be 102%.

Regarding `CCN(C)C(=O)c1ccc2c([S+](C)[O-])cn(-c3ncc(-c4cc(C)ccn4)cn3)c2c1` (stereo not drawn) [Example 271, N-Ethyl-N-methyl-1-(5-(4-methylpyridin-2-yl)pyrimidin-2-yl)-3-(methylsulfinyl)-1H-indole-6-carboxamide], the inhibition at 1 µM amounted to 97%.

With `CN(C)C(=O)c1ccc2c([S+](C)[O-])cn(-c3ncc(-c4cc(N(C)C)ccn4)cn3)c2c1` (stereo not drawn) [Example 272, 1-(5-(4-(Dimethylamino)pyridin-2-yl)pyrimidin-2-yl)-N,N-dimethyl-3-(methylsulfinyl)-1H-indole-6-carboxamide], the inhibition at 1 µM worked out at 93%.

Consider `CN(C)C(=O)c1ccc2c([S+](C)[O-])cn(-c3ncc(-c4cc(N)ccn4)cn3)c2c1` (stereo not drawn) [Example 273, 1-(5-(4-Aminopyridin-2-yl)pyrimidin-2-yl)-N,N-dimethyl-3-(methylsulfinyl)-1H-indole-6-carboxamide], for which the inhibition at 1 µM was determined as 91%.

As for `CCc1ccc(F)c(-c2cnc(-n3cc([S+](C)[O-])c4ccc(C(=O)N(C)C)cc43)nc2)c1` (stereo not drawn) [Example 274, 1-(5-(5-Ethyl-2-fluorophenyl)pyrimidin-2-yl)-N,N-dimethyl-3-(methylsulfinyl)-1H-indole-6-carboxamide], the inhibition at 1 µM is 104%.

Consider `CCc1ccc(F)c(-c2cnc(-n3cc([S+](C)[O-])c4ccc(C(=O)N5CCCC5)cc43)nc2)c1` (stereo not drawn) [Example 275, (1-(5-(5-Ethyl-2-fluorophenyl)pyrimidin-2-yl)-3-(methylsulfinyl)-1H-indol-6-yl)(pyrrolidin-1-yl)methanone], for which the inhibition at 1 µM came to 113%.

As to `CCc1ccc(F)c(-c2cnc(-n3cc([S+](C)[O-])c4ccc(C(=O)N5CCOCC5)cc43)nc2)c1` (stereo not drawn) [Example 276, (1-(5-(5-Ethyl-2-fluorophenyl)pyrimidin-2-yl)-3-(methylsulfinyl)-1H-indol-6-yl)(morpholino)methanone], the inhibition at 1 µM was found to be 106%.

On to `CCc1ccnc(-c2cnc(-n3cc([S+](C)[O-])c4ccc(C(=O)N5CCCC5)cc43)nc2)c1` (stereo not drawn) [Example 277, (1-(5-(4-Ethylpyridin-2-yl)pyrimidin-2-yl)-3-(methylsulfinyl)-1H-indol-6-yl)(pyrrolidin-1-yl)methanone], for which the inhibition at 1 µM is 93%.

Turning to `CCc1ccnc(-c2cnc(-n3cc([S+](C)[O-])c4ccc(C(=O)N(C)C)cc43)nc2)c1` (stereo not drawn) [Example 278, 1-(5-(4-Ethylpyridin-2-yl)pyrimidin-2-yl)-N,N-dimethyl-3-(methylsulfinyl)-1H-indole-6-carboxamide], the inhibition at 1 µM is 92%.

As for `COc1ccc(F)c(-c2cnc(-n3cc([S+](C)[O-])c4ccc(C(=O)N(C)CC(N)=O)cc43)nc2)c1` (stereo not drawn) [Example 279, N-(2-Amino-2-oxoethyl)-1-(5-(2-fluoro-5-methoxyphenyl)pyrimidin-2-yl)-N-methyl-3-(methylsulfinyl)-1H-indole-6-carboxamide], the inhibition at 1 µM stood at 97%.

As to `CCc1ccc(F)c(-c2cnc(-n3cc([S+](C)[O-])c4ccc(C(=O)N(C)CC(N)=O)cc43)nc2)c1` (stereo not drawn) [Example 280, N-(2-Amino-2-oxoethyl)-1-(5-(5-ethyl-2-fluorophenyl)pyrimidin-2-yl)-N-methyl-3-(methylsulfinyl)-1H-indole-6-carboxamide], the inhibition at 1 µM is 93%.

With `Cc1ccc(F)c(-c2cnc(-n3cc([S+](C)[O-])c4ccc(C(=O)N(C)CC(N)=O)cc43)nc2)c1` (stereo not drawn) [Example 281, N-(2-Amino-2-oxoethyl)-1-(5-(2-fluoro-5-methylphenyl)pyrimidin-2-yl)-N-methyl-3-(methylsulfinyl)-1H-indole-6-carboxamide], the inhibition at 1 µM amounted to 97%.

`Cc1ccnc(-c2cnc(-n3cc([S+](C)[O-])c4ccc(C(=O)N(C)CC(N)=O)cc43)nc2)c1` (stereo not drawn) [Example 282, N-(2-Amino-2-oxoethyl)-N-methyl-1-(5-(4-methylpyridin-2-yl)pyrimidin-2-yl)-3-(methylsulfinyl)-1H-indole-6-carboxamide]: the inhibition at 1 µM came out at 90%.

On to `COc1ccnc(-c2cnc(-n3cc([S+](C)[O-])c4ccc(C(=O)N(C)CC(N)=O)cc43)nc2)c1` (stereo not drawn) [Example 283, N-(2-Amino-2-oxoethyl)-1-(5-(4-methoxypyridin-2-yl)pyrimidin-2-yl)-N-methyl-3-(methylsulfinyl)-1H-indole-6-carboxamide], for which the inhibition at 1 µM is 92%.

In the case of `CN(CC(N)=O)C(=O)c1ccc2c([S+](C)[O-])cn(-c3ncc(-c4cc(N(C)C)ccn4)cn3)c2c1` (stereo not drawn) [Example 284, N-(2-Amino-2-oxoethyl)-1-(5-(4-(dimethylamino)pyridin-2-yl)pyrimidin-2-yl)-N-methyl-3-(methylsulfinyl)-1H-indole-6-carboxamide], the inhibition at 1 µM turned out to be 104%.

As to `CCc1ccnc(-c2cnc(-n3cc([S+](C)[O-])c4ccc(C(=O)N(C)CC(N)=O)cc43)nc2)c1` (stereo not drawn) [Example 285, N-(2-Amino-2-oxoethyl)-1-(5-(4-ethylpyridin-2-yl)pyrimidin-2-yl)-N-methyl-3-(methylsulfinyl)-1H-indole-6-carboxamide], the inhibition at 1 µM turned out to be 91%.

For `CS(=N)(=O)c1cn(-c2ncc(-c3ccccc3F)cn2)c2cc(C(=O)N3CCOCC3)ccc12` (stereo not drawn) [Example 287, (1-(5-(2-Fluorophenyl)pyrimidin-2-yl)-3-(S-methylsulfonimidoyl)-1H-indol-6-yl)(morpholino)methanone], the inhibition at 1 µM was 93%.

Turning to `Cc1ccnc(-c2cnc(-n3cc(S(C)(=N)=O)c4ccc(C(=O)N5CCOCC5)cc43)nc2)c1` (stereo not drawn) [Example 288, (1-(5-(4-Methylpyridin-2-yl)pyrimidin-2-yl)-3-(S-methylsulfonimidoyl)-1H-indol-6-yl)(morpholino)methanone], the inhibition at 1 µM came out at 92%.

Take `C[S+]([O-])c1cn(-c2ncc(-c3cc(C(C)(C)O)ccn3)cn2)c2cc(C(=O)N3CCOCC3)ccc12` (stereo not drawn) [Example 289, (1-(5-(4-(2-Hydroxypropan-2-yl)pyridin-2-yl)pyrimidin-2-yl)-3-(methylsulfinyl)-1H-indol-6-yl)(morpholino)methanone]: the inhibition at 1 µM was found to be 93%.

For `CC(O)c1ccnc(-c2cnc(-n3cc([S+](C)[O-])c4ccc(C(=O)N5CCOCC5)cc43)nc2)c1` (stereo not drawn) [Example 291, (1-(5-(4-(1-Hydroxyethyl)pyridin-2-yl)pyrimidin-2-yl)-3-(methylsulfinyl)-1H-indol-6-yl)(morpholino)methanone], the inhibition at 1 µM stood at 90%.

As for `C[S+]([O-])c1cn(-c2ncc(-c3cc(C(C)(C)O)ccc3F)cn2)c2cc(C(=O)N3CCOCC3)ccc12` (stereo not drawn) [Example 293, (1-(5-(2-Fluoro-5-(2-hydroxypropan-2-yl)phenyl)pyrimidin-2-yl)-3-(methylsulfinyl)-1H-indol-6-yl)(morpholino)methanone], the inhibition at 1 µM was 94%.

Still in this test, the particulars now being: test concentration 10 μM (marked in cell), read-out: Inhibition in % (inhibition of PDE4B).
For the molecule `CN(CC(N)=O)C(=O)c1ccc2c([S+](C)[O-])cn(-c3ncc(-c4cc(N)ccn4)cn3)c2c1` (stereo not drawn) [Example 286, N-(2-Amino-2-oxoethyl)-1-(5-(4-aminopyridin-2-yl)pyrimidin-2-yl)-N-methyl-3-(methylsulfinyl)-1H-indole-6-carboxamide], the inhibition at 10 µM worked out at 101%.

As for `C[S+]([O-])c1cn(-c2ncc(-c3cc(NCC4CC4)ccc3F)cn2)c2cc(C(=O)N3CCOCC3)ccc12` (stereo not drawn) [Example 290, (1-(5-(5-((Cyclopropylmethyl)amino)-2-fluorophenyl)pyrimidin-2-yl)-3-(methylsulfinyl)-1H-indol-6-yl)(morpholino)methanone], the inhibition at 10 µM worked out at 97%.

With `CCNc1ccc(F)c(-c2cnc(-n3cc([S+](C)[O-])c4ccc(C(=O)N5CCOCC5)cc43)nc2)c1` (stereo not drawn) [Example 292, (1-(5-(5-(Ethylamino)-2-fluorophenyl)pyrimidin-2-yl)-3-(methylsulfinyl)-1H-indol-6-yl)(morpholino)methanone], the inhibition at 10 µM amounted to 91%.

Source of the values: patent US9315490B2, “2,5-substituted pyrimidines” (Grünenthal GmbH, priority 2014, dated 2016).
